Measurements from US20160002204A1 (Board of Regents, The University of Texas System, priority 2014, published 2016).

What was measured:
[1] = target: T1, GLS1 (purified recombinant human GAC) (Homo sapiens, UniProt O94925); test: GLS1 enzymatic activity assay (dual-coupled, Amplex UltraRed/resorufin); assay type: biochemical
T1 sequence (O94925 55-598 isoform O94925-3 limits assumed): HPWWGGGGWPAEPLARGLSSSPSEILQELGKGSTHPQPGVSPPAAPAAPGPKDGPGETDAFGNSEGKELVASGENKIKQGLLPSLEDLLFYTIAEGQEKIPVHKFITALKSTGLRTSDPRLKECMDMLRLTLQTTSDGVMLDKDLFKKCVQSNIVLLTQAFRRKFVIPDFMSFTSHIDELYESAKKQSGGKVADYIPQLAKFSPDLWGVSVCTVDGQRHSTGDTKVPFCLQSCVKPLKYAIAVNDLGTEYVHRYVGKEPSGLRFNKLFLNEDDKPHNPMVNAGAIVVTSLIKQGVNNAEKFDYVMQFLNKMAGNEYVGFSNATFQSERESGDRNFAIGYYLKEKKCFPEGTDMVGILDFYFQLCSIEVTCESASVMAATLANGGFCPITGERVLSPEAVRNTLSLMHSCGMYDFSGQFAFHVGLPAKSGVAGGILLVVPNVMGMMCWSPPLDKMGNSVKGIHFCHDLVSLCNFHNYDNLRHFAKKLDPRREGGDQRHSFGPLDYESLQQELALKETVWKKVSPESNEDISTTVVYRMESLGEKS
In short: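 GAC activity measured by coupling glutamate to glutamate oxidase and HRP, generating resorufin from Amplex UltraRed. Enzyme (2 nM) preincubated with 50 mM potassium phosphate 10 min at room temperature, then inhibitor 10 min; 1 mM glutamine substrate, 1% DMSO. Fluorescence 530/590 nm, kinetic or 20-min endpoint; IC50 from four-parameter logistic fit.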

[2] = test system: A549 cells; test: A549 proliferation (viability) assay, Cell Titer Fluor, 72 hours; assay type: cell-based; details: Homo sapiens
In short: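 A549 cells in RPMI 1640 with 10% dialyzed FBS were seeded at 1000 cells/well, grown 24 h, then exposed to compound (0.5% DMSO final) for 72 h at 37 °C, 5% CO2. Viability was read by Cell Titer Fluor fluorescence; EC50 from four-parameter logistic fit.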

Row | Compound | IC50 [1] [nM] | EC50 [2] [nM]
1 | CC(C)OC(=O)Nc1ccn(CCCCc2ccc(NC(=O)Cc3ccccc3)nn2)c(=O)n1 [Example 94, propan-2-yl N-(2-oxo-1-{4-[6-(2-phenylacetamido)pyridazin-3-yl]butyl}-1,2-dihydropyrimidin-4-yl)carbamate] | < 100 | 100 to 500
2 | O=C(Cc1ccccc1)Nc1ccc(CCCCn2ccc(NC(=O)OC3CCCCC3)nc2=O)nn1 [Example 95, cyclohexyl N-(2-oxo-1-{4-[6-(2-phenylacetamido)pyridazin-3-yl]butyl}-1,2-dihydropyrimidin-4-yl)carbamate] | < 100 | < 100
3 | O=C(Cc1ccccc1)Nc1ccc(CCCCn2ccc(NC(=O)OCc3ccccc3)nc2=O)nn1 [Example 96, benzyl N-(2-oxo-1-{4-[6-(2-phenylacetamido)pyridazin-3-yl]butyl}-1,2-dihydropyrimidin-4-yl)carbamate] | < 100 | 100 to 500
4 | O=C(Cc1ccccc1)Nc1ccc(CCCCn2ccc(NC(=O)Oc3ccccc3)nc2=O)nn1 [Example 97, phenyl N-(2-oxo-1-{4-[6-(2-phenylacetamido)pyridazin-3-yl]butyl}-1,2-dihydropyrimidin-4-yl)carbamate] | 100 to 500 | > 5000
5 | CC(C)COC(=O)Nc1ccn(CCCCc2ccc(NC(=O)Cc3ccccc3)nn2)c(=O)n1 [Example 98, 2-methylpropyl N-(2-oxo-1-{4-[6-(2-phenylacetamido)pyridazin-3-yl]butyl}-1,2-dihydropyrimidin-4-yl)carbamate] | < 100 | 100 to 500
6 | O=C(Cc1ccccc1)Nc1ccc(CCCCn2ccc(NC(=O)[C@H](O)c3ccccc3)nc2=O)nn1 [Example 100, (2R)-2-hydroxy-N-(2-oxo-1-{4-[6-(2-phenylacetamido)pyridazin-3-yl]butyl}-1,2-dihydropyrimidin-4-yl)-2-phenylacetamide] | < 100 | 500 to 5000
7 | O=C(Cc1cccc(OC(F)(F)F)c1)Nc1ccc(CCCCn2ccc(NC(=O)OC3CCCCC3)nc2=O)nn1 [Example 103, cyclohexyl N-{2-oxo-1-[4-(6-{2-[3-(trifluoromethoxy)phenyl]acetamido}pyridazin-3-yl)butyl]-1,2-dihydropyrimidin-4-yl}carbamate] | < 100 | < 100
8 | O=C(Cc1cccc(OC(F)(F)F)c1)Nc1ccc(CCCCn2ccc(NC(=O)OC3CCOCC3)nc2=O)nn1 [Example 105, oxan-4-yl N-{2-oxo-1-[4-(6-{2-[3-(trifluoromethoxy)phenyl]acetamido}pyridazin-3-yl)butyl]-1,2-dihydropyrimidin-4-yl}carbamate] | < 100 | 100 to 500
9 | O=C(Cc1cccc(OC(F)(F)F)c1)Nc1ccc(CCCCn2ccc(NC(=O)NC3CCCCC3)nc2=O)nn1 [Example 107, N-[6-(4-{4-[(cyclohexylcarbamoyl)amino]-2-oxo-1,2-dihydropyrimidin-1-yl}butyl)pyridazin-3-yl]-2-[3-(trifluoromethoxy)phenyl]acetamide] | < 100 | 500 to 5000
10 | O=C(Nc1ccn(CCCCc2nnc(C(=O)NCCO)s2)c(=O)n1)OCc1ccccc1 [Example 119, benzyl N-[1-(4-{5-[(2-hydroxyethyl)carbamoyl]-1,3,4-thiadiazol-2-yl}butyl)-2-oxo-1,2-dihydropyrimidin-4-yl]carbamate] | 500 to 5000 | > 5000

Continued, values first:

Row | IC50 [1] [nM] | EC50 [2] [nM] | Compound
11 | < 100 | < 100 | O=C(Cc1ccccc1)Nc1ccc(CCCCn2ccc(NC(=O)Cc3cccc(OC(F)(F)F)c3)nc2=O)nn1 [Example 99, N-{6-[4-(2-oxo-4-{2-[3-(trifluoromethoxy)phenyl]acetamido}-1,2-dihydropyrimidin-1-yl)butyl]pyridazin-3-yl}-2-phenylacetamide]
12 | < 100 | 100 to 500 | O=C(Cc1cccc(OC(F)(F)F)c1)Nc1ccc(CCCCn2ccc(NC(=O)[C@H](O)c3ccccc3)nc2=O)nn1 [Example 101, (2R)-2-hydroxy-N-{2-oxo-1-[4-(6-{2-[3-(trifluoro-methoxy)phenyl]acetamido}pyridazin-3-yl)butyl]-1,2-dihydropyrimidin-4-yl}-2-phenylacetamide]
13 | < 100 | 100 to 500 | CC(C)OC(=O)Nc1ccn(CCCCc2ccc(NC(=O)Cc3cccc(OC(F)(F)F)c3)nn2)c(=O)n1 [Example 102, propan-2-yl N-{2-oxo-1-[4-(6-{2-[3-(trifluoromethoxy)phenyl]acetamido}pyridazin-3-yl)butyl]-1,2-dihydropyrimidin-4-yl}carbamate]
14 | < 100 | < 100 | CC(C)COC(=O)Nc1ccn(CCCCc2ccc(NC(=O)Cc3cccc(OC(F)(F)F)c3)nn2)c(=O)n1 [Example 104, 2-methylpropyl N-{2-oxo-1-[4-(6-{2-[3-(trifluoro-methoxy)phenyl]acetamido}pyridazin-3-yl)butyl]-1,2-dihydropyrimidin-4-yl}carbamate]
15 | 100 to 500 | 500 to 5000 | CC(C)NC(=O)Nc1ccn(CCCCc2ccc(NC(=O)Cc3cccc(OC(F)(F)F)c3)nn2)c(=O)n1 [Example 106, N-{6-[4-(2-oxo-4-{[(propan-2-yl)carbamoyl]amino}-1,2-dihydropyrimidin-1-yl)butyl]pyridazin-3-yl}-2-[3-(trifluoromethoxy)phenyl]acetamide]
16 | < 100 | < 100 | O=C(Cc1cccc(OC(F)(F)F)c1)Nc1ccc(CCCCn2ccc(NC(=O)CC3CCCCC3)nc2=O)nn1 [Example 108, N-(6-{4-[4-(2-cyclohexylacetamido)-2-oxo-1,2-dihydropyrimidin-1-yl]butyl}pyridazin-3-yl)-2-[3-(trifluoromethoxy)phenyl]acetamide]
17 | 100 to 500 | 500 to 5000 | O=C(Cc1cccc(OC(F)(F)F)c1)Nc1ccc(CCCCn2ccc(NC(=O)CCN3CCCC3)nc2=O)nn1 [Example 109, N-{2-oxo-1-[4-(6-{2-[3-(trifluoromethoxy)phenyl]acetamido}pyridazin-3-yl)butyl]-1,2-dihydropyrimidin-4-yl}-3-(pyrrolidin-1-yl)propanamide]
18 | < 100 | 100 to 500 | CS(=O)(=O)CCC(=O)Nc1ccn(CCCCc2ccc(NC(=O)Cc3cccc(OC(F)(F)F)c3)nn2)c(=O)n1 [Example 110, 3-methanesulfonyl-N-{2-oxo-1-[4-(6-{2-[3-(trifluoro-methoxy)phenyl]acetamido}pyridazin-3-yl)butyl]-1,2-dihydropyrimidin-4-yl}propanamide]
19 | < 100 | < 100 | CC(C)CC(=O)Nc1ccn(CCCCc2ccc(NC(=O)Cc3cccc(OC(F)(F)F)c3)nn2)c(=O)n1 [Example 111, 3-methyl-N-{2-oxo-1-[4-(6-{2-[3-(trifluoromethoxy)phenyl]acetamido}pyridazin-3-yl)butyl]-1,2-dihydropyrimidin-4-yl}butanamide]
20 | < 100 | 100 to 500 | COCCOC(=O)Nc1ccn(CCCCc2ccc(NC(=O)Cc3cccc(OC(F)(F)F)c3)nn2)c(=O)n1 [Example 112, 2-methoxyethyl N-{2-oxo-1-[4-(6-{2-[3-(trifluoro-methoxy)phenyl]acetamido}pyridazin-3-yl)butyl]-1,2-dihydropyrimidin-4-yl}carbamate]
21 | < 100 | 500 to 5000 | O=C(Cc1cccc(OC(F)(F)F)c1)Nc1ccc(CCCCn2ccc(NC(=O)CO)nc2=O)nn1 [Example 113, 2-hydroxy-N-{2-oxo-1-[4-(6-{2-[3-(trifluoromethoxy)phenyl]acetamido}pyridazin-3-yl)butyl]-1,2-dihydropyrimidin-4-yl}acetamide]
22 | < 100 | < 100 | Cn1cc(CC(=O)Nc2ccn(CCCCc3ccc(NC(=O)Cc4cccc(OC(F)(F)F)c4)nn3)c(=O)n2)cn1 [Example 114, N-[6-(4-{4-[2-(1-methyl-1H-pyrazol-4-yl)acetamido]-2-oxo-1,2-dihydropyrimidin-1-yl}butyl)pyridazin-3-yl]-2-[3-(trifluoromethoxy)phenyl]acetamide]
23 | < 100 | < 100 | O=C(Cc1cccc(OC(F)(F)F)c1)Nc1ccc(CCCCn2ccc(NC(=O)Cc3cccnc3)nc2=O)nn1 [Example 116, N-[6-(4-{2-oxo-4-[2-(pyridin-3-yl)acetamido]-1,2-dihydropyrimidin-1-yl}butyl)pyridazin-3-yl]-2-[3-(trifluoromethoxy)phenyl]acetamide]
24 | < 100 | 500 to 5000 | O=C(Cc1cccc(OC(F)(F)F)c1)Nc1ccc(CCCCn2ccc(NC(=O)CCO)nc2=O)nn1 [Example 117, 3-hydroxy-N-{2-oxo-1-[4-(6-{2-[3-(trifluoromethoxy)phenyl]acetamido}pyridazin-3-yl)butyl]-1,2-dihydropyrimidin-4-yl}propanamide]
25 | < 100 | < 100 | O=C(Cc1cccc(OC(F)(F)F)c1)Nc1ccc(CCCCn2ccc(NC(=O)Cc3ccccn3)nc2=O)nn1 [Example 118, N-[6-(4-{2-oxo-4-[2-(pyridin-2-yl)acetamido]-1,2-dihydropyrimidin-1-yl}butyl)pyridazin-3-yl]-2-[3-(trifluoromethoxy)phenyl]acetamide]
